Earlier results as cited in US20260117185A1, “ENHANCEMENT OF FIBROBLAST PLASTICITY FOR TREATMENT OF DISC DEGENERATION” (SPINALCYTE, LLC, priority 2018, published 2026).

What was measured:
mesenchymal stem cells = conditions: culture of cells with valproic acid
[1] = tested on: in vitro pre-mature senescence model; conditions: valproic acid treatment
[2] = through the suppression of the p16/p21 pathway

For `CCCC(CCC)C(=O)O` [valproic acid], the “immune regulatory and metabolic properties of mesenchymal stem cells” value (mesenchymal stem cells) is given as “enhanced immune regulatory and metabolic properties”, the “G2/M phase blockage derived from the senescence stress” value [1] is given as “inhibited the G2/M phase blockage” and the apoptosis [1, 2] is given as “inhibited apoptosis”. The cell proliferation [1, 2] was “increased cell proliferation”.
